Activity calls are given as the source filed them.
Key:
[1] = biological target: Fatty acid synthase (Homo sapiens, UniProt P49327); experiment: FAS thioesterase domain inhibitors, SAR follow-up, biochemical, endpoint fluorescence intensity, powder samples (AID 652164); type: functional
[2] = biological target: CAAX prenyl protease 2 (Homo sapiens, UniProt Q9Y256); experiment: human Rce1 protease inhibitors, dose response, biochemical, yeast membranes, quenched-peptide fluorescence, cherry-pick (AID 588849)
[3] = biological target: Photoreceptor-specific nuclear receptor (Homo sapiens, UniProt Q9Y5X4); type: functional;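 note: potency for compounds that break the NR2E3 corepressor complex and count as activators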
[4] = cells
[5] = biological target: T1, Small ubiquitin-related modifier 1 (Homo sapiens, UniProt P63165); experiment: inhibitors of SUMO1 partner interactions, dose response, biochemical, FRET (AID 624383); type: functional; settings: read-out: IC50_Mean
[6] = biological target: T1, Small ubiquitin-related modifier 1; experiment: inhibitors of SUMO1 peptide binding, dose response, biochemical, fluorescence polarization, uHTS hits (AID 624382); type: functional; settings: read-out: IC50_Mean
[7] = biological target: T2, CAAX prenyl protease 2 (Saccharomyces cerevisiae S288c, UniProt Q03530); type: biochemical
T2 sequence (Q03530 whole entry): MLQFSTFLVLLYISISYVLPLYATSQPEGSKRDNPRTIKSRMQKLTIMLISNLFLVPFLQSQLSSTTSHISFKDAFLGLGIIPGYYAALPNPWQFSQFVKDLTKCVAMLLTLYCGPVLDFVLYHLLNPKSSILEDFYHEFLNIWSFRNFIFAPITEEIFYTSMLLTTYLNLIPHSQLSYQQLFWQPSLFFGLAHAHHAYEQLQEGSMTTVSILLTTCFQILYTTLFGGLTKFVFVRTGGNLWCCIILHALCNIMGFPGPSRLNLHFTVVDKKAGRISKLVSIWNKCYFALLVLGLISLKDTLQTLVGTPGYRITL

[8] = biological target: Peroxisome proliferator-activated receptor gamma/Nuclear receptor corepressor 2 (Homo sapiens, UniProt P37231+Q9Y618); type: functional
[9] = biological target: Dual specificity tyrosine-phosphorylation-regulated kinase 1A (Rattus norvegicus, UniProt Q63470); type: biochemical, Homo sapiens
[10] = biological target: Major prion protein (Homo sapiens, UniProt P04156); type: functional, cell-based
[11] = biological target: Tyrosyl-DNA phosphodiesterase 2 (Homo sapiens, UniProt O95551); experiment: human TDP2 enzyme inhibitors, dose response, biochemical, epi absorbance, IC50 (AID 743297)
[12] = system: INS1; experiment: beta cell apoptosis inhibitors, cytokine rescue, dose response, luminescence, retest (AID 449756); type: functional, cell-based; settings: Rattus norvegicus;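 note: cell death triggered by IL-1 beta plus TNF-alpha plus IFN-gamma mixture; protective hits raise ATP signal compared with cytokine alone wells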
[13] = cells; type: functional, cell-based
[14] = human group III sPLA2 inhibitors, dose response, biochemical, QFRET, IC50 (AID 743457);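 note: green fluorescence rise as the enzyme cleaves BODIPY PC-A2 in liposomes; potency for inhibition of the enzyme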
[15] = cells; type: functional, cell-based; remark: listed apart in the source
[16] = Luminescence Cell-Based Dose Confirmation HTS to Identify Inhibitors of Platelet Dense Granule Release. [Related pubchem assays: 1663 (Primary HTS), 1678 (Summary of Project)]; type: functional
[17] = biological target: Luciferin 4-monooxygenase (Photinus pyralis, UniProt P08659); experiment: firefly luciferase enzyme inhibitors, dose response, biochemical, luminescence (AID 1891)
[18] = biological target: Disintegrin and metalloproteinase domain-containing protein 17 (Homo sapiens, UniProt P78536); experiment: exosite inhibitors of ADAM17, dose response, biochemical (AID 743260)
[19] = ADAM10 protease inhibitors, dose response, selectivity assay for ADAM17 exosite inhibitor project, biochemical, FRET peptide substrate, recombinant human ADAM10 (AID 743259);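 note: ADAM10 enzyme cleaving a FRET peptide substrate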
[20] = HEK293 Cytotoxicity Assay Measured in Cell-Based System Using Plate Reader - 7071-01_Inhibitor_Dose_CherryPick_Activity_Set2.; type: functional
[21] = system: HEK293; experiment: HEK293T cell cytotoxicity, dose response, cytotoxicity control, ATP luminescence, cherry-pick samples (AID 687005); type: functional, cell-based; settings: Homo sapiens;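 note: cells exposed to compound for 48 hours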
[22] = system: HeLa; experiment: HeLa cell cytotoxicity, dose response, cytotoxicity control, ATP luminescence, cherry-pick samples (AID 687004); type: functional, cell-based; settings: Homo sapiens
[23] = biological target: Oxysterols receptor LXR-beta (Homo sapiens, UniProt P55055); type: functional, cell-based;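 note: Cell-based luminescence dose-response assay of agonist activity at LXR, run as a confirmatory counterscreen to a daf-12 agonist screen; HEK293 cells with Gal4-LXR fusion and GAL4-driven luciferase reporter; agonist potency from rising luciferase signal of a Gal4-LXR reporter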
[24] = cells; remark: listed apart in the source
[25] = biological target: Potassium channel subfamily K member 9 (Homo sapiens, UniProt Q9NPC2); experiment: TASK3 (KCNK9) channel inhibitors, thallium flux, SAR follow-up, selectivity assay for TASK1 inhibitor project, cell-based, FluxOR thallium flux, concentration-response (AID 652211); type: functional;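 note: potency is for inhibitors of the channel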
[26] = biological target: Voltage-gated inwardly rectifying potassium channel KCNH2 (Homo sapiens, UniProt Q12809); experiment: hERG channel inhibition in selectivity testing, SAR follow-up, selectivity assay for TASK1 inhibitor project, FluxOR thallium flux, concentration-response, CHO cells (AID 652194); type: functional, cell-based
[27] = biological target: Potassium channel subfamily K member 3 (Homo sapiens, UniProt O14649); experiment: TASK1 (KCNK3) potassium channel inhibitors, SAR follow-up, CHO cells, FluxOR thallium flux (AID 652212); type: functional
[28] = T. cruzi growth inhibition in host cells, dose response, cell-based, plate reader, dry powder, set 2 (AID 652275); type: functional

For CCN(CC)S(=O)(=O)c1ccc(-c2csc(NC(=O)C3CCC3)n2)cc1, the IC50 [1] was 0.985 µM (active).
In the case of N#CC(C#N)=C1NC(N)=C(C#N)C(c2ccccc2)=C1C#N, the AC50 [2] is reported as 8.31 µM (active), the IC50 [3] is reported as 8.41 µM (active) and the IC50 [4] is reported as > 138 µM (inactive). The IC50 [5] was 100 µM (inactive), the IC50 [6] was > 66.6 µM (inactive) and the AC50 [7] was > 100 µM (inactive). The IC50 [8] was 3.22 µM (active), the AC50 [9] was 4.56 µM (active) and the IC50 [10] was 1.92 µM (active). For the same compound, the IC50 [11] was > 128 µM (inactive).
For CCOC(=O)N1CCN(S(=O)(=O)c2ccc(C(=O)NNc3nc4c(C)cc(C)cc4s3)cc2)CC1, the AC50 [12] was 4.46 µM (active), the EC50 [13] was 14.5 µM (active) and the IC50 [14] was 24.6 µM (inactive). For the same compound, the EC50 [15] was > 350 µM (not active).
In the case of Cc1ccccc1-c1noc(-c2ccc(O)cc2)n1, the EC50 [16] is reported as 0.623 µM (active), the EC50 [17] is reported as 0.122 µM (active) and the IC50 [18] is reported as > 69.5 µM (inactive). For the same compound, the IC50 [19] was 48.8 µM (inactive).
With C[C@@H]1CN([C@H](C)CO)C(=O)c2c(c3ccccc3n2C)-c2ccccc2CO[C@H]1CN(C)S(=O)(=O)c1ccc(Cl)cc1 the AC50 [20] was 23.1 µM (active), the AC50 [21] was 23.1 µM (active) and the AC50 [22] was > 47 µM (inactive).
In the case of CCOC(=O)c1s/c(=N\C(=O)c2cccs2)n(C)c1C, the EC50 [23] is reported as > 67.5 µM (inactive) and the EC50 [24] is reported as > 67.5 µM (inactive).
For COc1ccc(CC(=O)NCc2ccccc2-c2ccccc2C(=O)NCc2ccc(F)cc2F)cc1, the IC50 [25] was 3.2 µM (active), the IC50 [26] was 36.7 µM (active) and the IC50 [27] was 0.115 µM (active).
With CN1CCCCN2[C@@H](CO)[C@H](c3ccc(Br)cc3)[C@@H]2C1 the AC50 [28] was 16 µM (active).
